Series [1] deals with T1, human GLP-1 receptor (Homo sapiens, UniProt P43220).
T1 construct: expressed in transfected cells; host or cells: BHK cells, clone BHK-467-12A; plasma membrane preparation
The series is described as follows: Functional receptor assay: cAMP formation in plasma membranes of BHK cells expressing the cloned human GLP-1 receptor (GLP1cAMPma). Format: biochemical. How it is done: The term “insulinotropic agent” as used herein means a compound which is an agonist of the human GLP-1 receptor, i.e. a compound which stimulates the formation of cAMP in a suitable medium containing the human GLP-1 receptor (one such medium disclosed below). The potency of an insulinotropic agent is determined by calculating the EC50 value from the dose-response curve as described below.
The cells were washed twice in phosphate buffered saline and harvested with Versene. Plasma membranes were prepared from the cells by homogenisation with an Ultraturrax in buffer 1 (20 mM HEPES-Na, 10 mM EDTA, pH 7.4). The homogenate was centrifuged at 48,000×g for 15 min at 4° C. The pellet was suspended by homogenization in buffer 2 (20 mM HEPES-Na, 0.1 mM EDTA, pH 7.4), then centrifuged at 48,000×g for 15 min at 4° C. The washing procedure was repeated one more time. The final pellet was suspended in buffer 2 and used immediately for assays or stored at −80° C.
The functional receptor assay was carried out by measuring cyclic AMP (cAMP) as a response to stimulation by the insulinotropic agent. cAMP formed was quantified by the AlphaScreen™ cAMP Kit (Perkin Elmer Life Sciences). Incubations were carried out in half-area 96-well microtiter plates in a total volume of 50 μL buffer 3 (50 mM Tris-HCl, 5 mM HEPES, 10 mM MgCl2, pH 7.4) and with the following additions: 1 mM ATP, 1 μM GTP, 0.5 mM 3-isobutyl-1-methylxanthine (IBMX), 0.01% Tween-20, 0.1% BSA, 6 μg membrane preparation, 15 μg/mL acceptor beads, 20 μg/mL donor beads preincubated with 6 nM biotinyl-cAMP. […] GTP was freshly prepared for each experiment. The plate was incubated in the dark with slow agitation for three hours at room temperature followed by counting in the Fusion™ instrument (Perkin Elmer Life Sciences). Concentration-response curves were plotted for the individual compounds and EC50 values estimated using a four-parameter logistic model with Prism v. 4.0 (GraphPad, Carlsbad, Calif.).

Series [2] can be described thus: Chemical stability of solubilised peptide at 40° C., impurities monitored by RP-HPLC/UPLC. To be noted: for Formation rate of peptide related impurities at 40° C.: 2.5 weeks, 100 nmol peptide in 1 ml phosphate buffered saline, pH 7.4. Format: physicochemical. How it is done:
The chemical stability of solubilised acylated exendin-4 compounds were monitored by RP-HPLC following incubation at […]
The formation of exendin analogue related impurities relative to control samples stored in the freezer were monitored with a Waters UPLC system. Samples were applied to Acquity UPLC BEH C18 (1.7 μm) 2.1×50 mm column and eluted at a flow rate of 0.9 ml/min with linear stepwise gradients of acetonitrile in 0.1% trifluoroacetic acid (from 5 to 100% acetonitrile for 10 min, and from 100 to 5% acetonitrile for 1 min). The column was heated to 30 C and detection was performed at 214 nm.

[3] abbreviates: cAMP, membranes with human GLP-1 receptor, mean value, read-out: GLP1cAMPma (3693) [EC50 (nM)] Mean Value.

Where two headings read alike, the source gives them in different places. Starred links: 1 amine or outer side, 2 acyl side, 3 side chain; linkers in the order of their positions; H or OH if unused. Residues, ends and D or L forms follow the SMILES beside them. Groups on a side chain read outwards from the residue. *: point of attachment. γGlu = O=C(O)[C@H](CCC(=O)[*:2])N[*:1]; Stearoyl = CCCCCCCCCCCCCCCCCC(=O)*; Palmitoyl = CCCCCCCCCCCCCCCC(=O)*; AEEA = NCCOCCOCC(=O)O

By EC50 is commonly meant the concentration that produces a half-maximal response.

T1 sequence (P43220 24-463): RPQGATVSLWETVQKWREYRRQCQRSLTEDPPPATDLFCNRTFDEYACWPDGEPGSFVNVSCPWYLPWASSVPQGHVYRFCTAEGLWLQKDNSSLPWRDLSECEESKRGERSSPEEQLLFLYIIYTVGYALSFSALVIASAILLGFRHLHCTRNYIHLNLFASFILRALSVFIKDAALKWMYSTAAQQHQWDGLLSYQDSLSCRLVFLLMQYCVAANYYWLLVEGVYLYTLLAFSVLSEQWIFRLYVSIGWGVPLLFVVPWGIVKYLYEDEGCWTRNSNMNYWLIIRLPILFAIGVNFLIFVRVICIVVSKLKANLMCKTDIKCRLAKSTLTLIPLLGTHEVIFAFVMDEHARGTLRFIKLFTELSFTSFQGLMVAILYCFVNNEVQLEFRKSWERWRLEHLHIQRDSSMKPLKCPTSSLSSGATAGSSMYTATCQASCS

As to `CCCCCCCCCCCCCCCC(=O)N[C@@H](CCC(=O)NCCOCCOCC(=O)NCCOCCOCC(=O)NCCCC[C@H](NC(=O)[C@H](CCC(N)=O)NC(=O)[C@H](CCCNC(=N)N)NC(=O)[C@H](CO)NC(=O)[C@H](CC(C)C)NC(=O)[C@H](CC(=O)O)NC(=O)[C@H](CO)NC(=O)[C@@H](NC(=O)[C@H](Cc1ccccc1)NC(=O)[C@@H](NC(=O)CNC(=O)[C@H](CCC(=O)O)NC(=O)CNC(=O)[C@@H](N)Cc1c[nH]cn1)[C@@H](C)O)[C@@H](C)O)C(=O)N[C@@H](CCC(=O)O)C(=O)N[C@@H](CCC(=O)O)C(=O)N[C@@H](CCC(=O)O)C(=O)N[C@@H](C)C(=O)N[C@H](C(=O)N[C@@H](CCCNC(=N)N)C(=O)N[C@@H](CC(C)C)C(=O)N[C@@H](Cc1ccccc1)C(=O)N[C@H](C(=O)N[C@@H](CCC(=O)O)C(=O)N[C@@H](Cc1c[nH]c2ccccc12)C(=O)N[C@@H](CC(C)C)C(=O)N[C@H](C(=O)N[C@@H](CCCNC(=N)N)C(=O)NCC(=O)NCC(=O)N1CCC[C@H]1C(=O)N[C@@H](CO)C(=O)N[C@@H](CO)C(=O)NCC(=O)N[C@@H](C)C(=O)N1CCC[C@H]1C(=O)N1CCC[C@H]1C(=O)N1CCC[C@H]1C(=O)N[C@@H](CO)C(N)=O)C(C)C)[C@@H](C)CC)C(C)C)C(=O)O` [Example 25] (H-HGEGTFTSDLSRQK([AEEA-AEEA-γGlu-Palmitoyl])EEEAVRLFIEWLVRGGPSSGAPPPS-NH2; N-terminus assumed), the concentration giving a half-maximal response (EC50) in series [1] (setting [3]) was 0.037 nM. In addition, the “Formation rate of peptide related impurities at 40° C.” value (from here on “Formation rate … at 40° C.”) in series [2] stood at 3.0 %/week.

For Exendin-4 [reference compound], the “formation rate of peptide related impurities” value in series [2] (100 nmol/ml in 50 mM phosphate buffer with 0.05% Tween 80, pH 8.0) was 40-50 % per week.

On to `CCCCCCCCCCCCCCCCCC(=O)NCCOCCOCC(=O)NCCOCCOCC(=O)NCCOCCOCC(=O)NCCCC[C@H](NC(=O)[C@@H](NC(=O)[C@H](C)NC(=O)[C@H](CCC(=O)O)NC(=O)[C@H](CCC(=O)O)NC(=O)[C@H](CCC(=O)O)NC(=O)[C@H](CC(C)C)NC(=O)[C@H](CCC(N)=O)NC(=O)[C@H](CCCNC(=N)N)NC(=O)[C@H](CO)NC(=O)[C@H](CC(C)C)NC(=O)[C@H](CC(=O)O)NC(=O)[C@H](CO)NC(=O)[C@@H](NC(=O)[C@H](Cc1ccccc1)NC(=O)[C@@H](NC(=O)CNC(=O)[C@H](CCC(=O)O)NC(=O)CNC(=O)[C@@H](N)Cc1c[nH]cn1)[C@@H](C)O)[C@@H](C)O)C(C)C)C(=O)N[C@@H](CC(C)C)C(=O)N[C@@H](Cc1ccccc1)C(=O)N[C@H](C(=O)N[C@@H](CCC(=O)O)C(=O)N[C@@H](Cc1c[nH]c2ccccc12)C(=O)N[C@@H](CC(C)C)C(=O)N[C@@H](CCCNC(=N)N)C(=O)N[C@@H](CCC(N)=O)C(=O)NCC(=O)NCC(=O)N1CCC[C@H]1C(=O)N[C@@H](CO)C(=O)N[C@@H](CO)C(=O)NCC(=O)N[C@@H](C)C(=O)N1CCC[C@H]1C(=O)N1CCC[C@H]1C(=O)N1CCC[C@H]1C(=O)N[C@@H](CO)C(N)=O)[C@@H](C)CC` [Example 14, N-ε^20-(2-(2-(2-(2-(2-(2-(2-(2-(2-(Octadecanoylamino)ethoxy)ethoxy)acetylamino)ethoxy)ethoxy)acetyl-amino)ethoxy)ethoxy)acetyl))[Arg^12,27,Gln^28,Leu^14,Lys^20 Exendin-4(1-39)amide] (H-HGEGTFTSDLSRQLEEEAVK([AEEA-AEEA-AEEA-Stearoyl])LFIEWLRQGGPSSGAPPPS-NH2; N-terminus assumed), for which the EC50 in series [1] (setting [3]) came out at 0.017 nM. In addition, the “Formation rate … at 40° C.” value in series [2] worked out at 1.5 %/week.

`CCCCCCCCCCCCCCCCCC(=O)NCCOCCOCC(=O)NCCOCCOCC(=O)NCCOCCOCC(=O)NCCCC[C@H](NC(=O)[C@H](CCC(N)=O)NC(=O)[C@H](CCCNC(=N)N)NC(=O)[C@H](CO)NC(=O)[C@H](CC(C)C)NC(=O)[C@H](CC(=O)O)NC(=O)[C@H](CO)NC(=O)[C@@H](NC(=O)[C@H](Cc1ccccc1)NC(=O)[C@@H](NC(=O)CNC(=O)[C@H](CCC(=O)O)NC(=O)CNC(=O)[C@@H](N)Cc1c[nH]cn1)[C@@H](C)O)[C@@H](C)O)C(=O)N[C@@H](CCC(=O)O)C(=O)N[C@@H](CCC(=O)O)C(=O)N[C@@H](CCC(=O)O)C(=O)N[C@@H](C)C(=O)N[C@H](C(=O)N[C@@H](CCCNC(=N)N)C(=O)N[C@@H](CC(C)C)C(=O)N[C@@H](Cc1ccccc1)C(=O)N[C@H](C(=O)N[C@@H](CCC(=O)O)C(=O)N[C@@H](Cc1c[nH]c2ccccc12)C(=O)N[C@@H](CC(C)C)C(=O)N[C@H](C(=O)N[C@@H](CCCNC(=N)N)C(=O)NCC(=O)NCC(=O)N1CCC[C@H]1C(=O)N[C@@H](CO)C(=O)N[C@@H](CO)C(=O)NCC(=O)N[C@@H](C)C(=O)N1CCC[C@H]1C(=O)N1CCC[C@H]1C(=O)N1CCC[C@H]1C(=O)N[C@@H](CO)C(N)=O)C(C)C)[C@@H](C)CC)C(C)C` [Example 26, N-ε^14-(2-(2-(2-(2-(2-(2-(2-(2-(2-(Octadecanoylamino)ethoxy)ethoxy)acetylamino)ethoxy)ethoxy)acetyl-amino)ethoxy)ethoxy)acetyl)[Arg^12,Lys^14,Val^27,Arg^28]Exendin-4-(1-39)-amide] (H-HGEGTFTSDLSRQK([AEEA-AEEA-AEEA-Stearoyl])EEEAVRLFIEWLVRGGPSSGAPPPS-NH2; N-terminus assumed): the EC50 in series [1] (setting [3]) was found to be 0.088 nM. For the same compound, the “Formation rate … at 40° C.” value in series [2] is given as 2.0 %/week.

`CCCCCCCCCCCCCCCC(=O)N[C@@H](CCC(=O)NCCOCCOCC(=O)NCCOCCOCC(=O)NCCCC[C@H](NC(=O)[C@@H](NC(=O)[C@H](C)NC(=O)[C@H](CCC(=O)O)NC(=O)[C@H](CCC(=O)O)NC(=O)[C@H](CCC(=O)O)NC(=O)[C@H](CC(C)C)NC(=O)[C@H](CCC(N)=O)NC(=O)[C@H](CCC(N)=O)NC(=O)[C@H](CO)NC(=O)[C@H](CC(C)C)NC(=O)[C@H](CC(=O)O)NC(=O)[C@H](CO)NC(=O)[C@@H](NC(=O)[C@H](Cc1ccccc1)NC(=O)[C@@H](NC(=O)CNC(=O)[C@H](CCC(=O)O)NC(=O)CNC(=O)[C@@H](N)Cc1c[nH]cn1)[C@@H](C)O)[C@@H](C)O)C(C)C)C(=O)N[C@@H](CC(C)C)C(=O)N[C@@H](Cc1ccccc1)C(=O)N[C@H](C(=O)N[C@@H](CCC(=O)O)C(=O)N[C@@H](Cc1c[nH]c2ccccc12)C(=O)N[C@@H](CC(C)C)C(=O)N[C@@H](CCCCN)C(=O)N[C@@H](CCC(N)=O)C(=O)NCC(=O)NCC(=O)N1CCC[C@H]1C(=O)N[C@@H](CO)C(=O)N[C@@H](CO)C(=O)NCC(=O)N[C@@H](C)C(=O)N1CCC[C@H]1C(=O)N1CCC[C@H]1C(=O)N1CCC[C@H]1C(=O)N[C@@H](CO)C(N)=O)[C@@H](C)CC)C(=O)O` [Example 48] (H-HGEGTFTSDLSQQLEEEAVK([AEEA-AEEA-γGlu-Palmitoyl])LFIEWLKQGGPSSGAPPPS-NH2; N-terminus assumed) showed an EC50 in series [1] of 0.021 nM.

As to `CCCCCCCCCCCCCCCCCC(=O)N[C@@H](CCC(=O)NCCOCCOCC(=O)NCCOCCOCC(=O)NCCCC[C@H](NC(=O)[C@@H](NC(=O)[C@H](C)NC(=O)[C@H](CCC(=O)O)NC(=O)[C@H](CCC(=O)O)NC(=O)[C@H](CCC(=O)O)NC(=O)[C@H](CC(C)C)NC(=O)[C@H](CCC(N)=O)NC(=O)[C@H](CCCNC(=N)N)NC(=O)[C@H](CO)NC(=O)[C@H](CC(C)C)NC(=O)[C@H](CC(=O)O)NC(=O)[C@H](CO)NC(=O)[C@@H](NC(=O)[C@H](Cc1ccccc1)NC(=O)[C@@H](NC(=O)CNC(=O)[C@H](CCC(=O)O)NC(=O)CNC(=O)[C@@H](N)Cc1c[nH]cn1)[C@@H](C)O)[C@@H](C)O)C(C)C)C(=O)N[C@@H](CC(C)C)C(=O)N[C@@H](Cc1ccccc1)C(=O)N[C@H](C(=O)N[C@@H](CCC(=O)O)C(=O)N[C@@H](Cc1c[nH]c2ccccc12)C(=O)N[C@@H](CC(C)C)C(=O)N[C@@H](CCCNC(=N)N)C(=O)N[C@@H](CCC(N)=O)C(=O)NCC(=O)NCC(=O)N1CCC[C@H]1C(=O)N[C@@H](CO)C(=O)N[C@@H](CO)C(=O)NCC(=O)N[C@@H](C)C(=O)N1CCC[C@H]1C(=O)N1CCC[C@H]1C(=O)N1CCC[C@H]1C(=O)N[C@@H](CO)C(N)=O)[C@@H](C)CC)C(=O)O` [Example 15] (H-HGEGTFTSDLSRQLEEEAVK([AEEA-AEEA-γGlu-Stearoyl])LFIEWLRQGGPSSGAPPPS-NH2), in series [1] (setting [3]), the EC50 was determined as 0.044 nM.

These data come from patent US9012398B2, “Acylated exendin-4 compounds” (priority 2006, dated 2015).
